Results from US20260364072A1, “METHODS FOR PROMOTING EXPANSION OF HUMAN CD34+ CELLS IN VIVO AND FOR PROMOTING NEURAL REGENERATION” (THE REGENTS OF THE UNIVERSITY OF CALIFORNIA, priority 2023, published 2026).

Experiments:
[1] = system: ADAR1p150; experiment: ADAR1p150 protein by intracellular flow cytometry in sAML50261 engrafted mice; type: in vivo, human cells in mice; conditions: human HSC and HPC, spleens of sAML50261 engrafted mice, vs vehicle
Description: FIG. 30D illustrates a mean fluorescence intensity (MFI) of ADAR1p150 protein levels in human HSCs (CD45^+CD34^+CD38^−Lin^−) and HPCs (CD45^+CD34^+CD38^+Lin^−) from the spleens of sAML50261 engrafted mice treated with Rebecsinib or vehicle;
Flow cytometry for stem and progenitor cell surface antibody staining was performed as previously described.^14 For phospho-flow, a subset of samples was fixed and permeabilized, then blocked and stained with APC-conjugated ADAR1p150 antibody (cat ab269444, 1:25) and pSTAT3 APC (cat 17-9033-42, 1:10) (Table S2). Fractions were analyzed with the BD LSR FORTESSA™ (Sanford Consortium for Regenerative Medicine Stem Cell Core) and FLOWJO™ software (TreeStar, Ashland, OR).
In humanized mouse models, sAML cells (CD34^+) from two unique […] patient samples that were splicing factor mutated or unmutated were utilized, including sAML50261 and sAML2008-5.^14 For in vivo efficacy and therapeutic index studies, sAML CD34^+ cells, or normal human cord blood-derived or aged bone marrow-derived HSPCs (CD34^+), were transplanted (50,000-200,000 cells per mouse) intrahepatically into neonatal Rag2^−/−γc^−/− mice, or intravenously into adult NSG-SGM3 mice (Jackson Laboratories, Bar Harbor, ME). A subset of experiments was performed with normal aged bone marrow cells that were transduced with the lentiviral ADAR1 nanoluc-GFP reporter vector prior to transplant. […]

[2] = system: MCL1-L, BCL-XL, BCL-2, SF3B1, SF3B3 transcripts; experiment: Splicing effects on LSC-enriched anti-apoptotic transcripts and splicing factor gene products; type: cell-based, human
Description: (§1) For quantitative analysis of splice isoform expression, RNA editing rates, and whole gene expression by qRT-PCR, cells or tissue fragments were harvested in RNA lysis buffer and total RNA was extracted using RNeasy mini or micro extraction kits (QIAGEN, Germantown, MD) following the manufacturer's protocol including a DNase incubation step to digest any trace genomic DNA present. Levels of ADAR1 variants and LSC-specific transcripts were quantified by qRT-PCR as previously described.^14 RNA-editing site-specific qRT-PCR (RESSqPCR) was performed for variants in AZIN1 transcripts.^53 Additional species-specific primers were also designed to quantify intron retention rates in cells treated with Rebecsinib as a biomarker of response to RNA splicing modulation. Specifically, for the two-step SYBR-green based assays, as previously described,^7,14,53 100-1000 ng of RNA were subjected to cDNA synthesis using the SUPERSCRIPT III™ (ThermoFisher Scientific) kit followed by qRT-PCR using SYBR GreenER (ThermoFisher Scientific) master mix according to the manufacturer's recommended procedures. qRT-PCR was performed using SYBR GREENER SUPER MIX™ (Life Technologies) on BioRad iQ5™, C1000 TOUCH™, or BioRad CFX384™ instruments. […] Relative mRNA expression values were calculated using the 2^−ΔCT method, with normalization to untreated or vehicle-treated controls.^54

[3] = system: normal HSPCs; experiment: Normal cord blood HSPC engrafted mice; type: in vivo, human cells in Rag2-/-γc-/- mice
Description: To determine the sensitivity of normal HSPCs to Rebecsinib, human cord blood-derived CD34+ cells were transplanted into Rag2^−/−γc^−/− mice. After human cell engraftment was established (6 to 12 weeks), mice were treated with Rebecsinib twice-weekly for two weeks at doses equivalent to the maximum doses selected for in vivo LSC assays. The frequency of CD45^+ hematopoietic cells in bone marrow, peripheral blood, spleen, and thymus were unchanged between vehicle and Rebecsinib-treated groups that received a dose of 10 mg/kg. […] Thus, a dose of 10 mg/kg in mice is sufficient to reduce in vivo sAML LSC burden while sparing normal HSPC development.
In humanized mouse models, sAML cells (CD34^+) from two unique […] patient samples that were splicing factor mutated or unmutated were utilized, including sAML50261 and sAML2008-5.^14 For in vivo efficacy and therapeutic index studies, sAML CD34^+ cells, or normal human cord blood-derived or aged bone marrow-derived HSPCs (CD34^+), were transplanted (50,000-200,000 cells per mouse) intrahepatically into neonatal Rag2^−/−γc^−/− mice, or intravenously into adult NSG-SGM3 mice (Jackson Laboratories, Bar Harbor, ME). A subset of experiments was performed with normal aged bone marrow cells that were transduced with the lentiviral ADAR1 nanoluc-GFP reporter vector prior to transplant. For transplantation into adult mice, animals were irradiated with ^137Cs at a dose of 150 cGy 24 hr before IV transplantation. After engraftment levels reached >1% human CD45^+ hematopoietic cells in the peripheral blood, animals were distributed among treatment groups for treatment with Rebecsinib or vehicle control essentially as previously described, with an increased dosing regimen of twice weekly (versus once weekly in prior studies)^14 and an optimized in vivo formulation (2% w/w EtOH, 5% w/v KOLLIPHOR HS™ 15 in 0.9% saline). For animals that received transplants of cells transduced with the lentiviral ADAR1 nanoluc-GFP reporter, mice were imaged 15 weeks after transplant on the IVIS 200, as previously described.^79 Following treatment with Rebecsinib (five intravenous doses total over a two-week period), hematopoietic tissues (peripheral blood, bone marrow, spleens) were collected and analyzed by flow cytometry as previously described.^14 For splice isoform-specific qRT-PCR or RNA-seq analyses on cells from in vivo studies, human CD34^+ LSC from bone marrows and spleens of engrafted mice were isolated by magnetic bead separation (Miltenyi Biotec).

[4] = system: RBL-1 leukemia cells (Sf3b family members); experiment: Splice isoform biomarker qRT-PCR in rat RBL-1 leukemia cells; type: cell-based; conditions: 1 μM, 4 hr; different lots of Rebecsinib
Description: as §1, with “modulation.” for “modulation. Specifically, for the two-step SYBR-green based assays, as previously described,^7,14,53 100-1000 ng of RNA were subjected to cDNA synthesis using the SUPERSCRIPT III™ (ThermoFisher Scientific) kit followed by qRT-PCR using SYBR GreenER (ThermoFisher Scientific) master mix according to the manufacturer's recommended procedures. qRT-PCR was performed using SYBR GREENER SUPER MIX™ (Life Technologies) on BioRad iQ5™, C1000 TOUCH™, or BioRad CFX384™ instruments.”
For multi-species biomarker development and transcript variant-specific qRT-PCR experiments, human AML cell lines KG-1a, MOLM-13, and HL-60, and rat leukemia cells RBL-1 were grown to confluence and treated with 1 μM Rebecsinib for 4 hr. Cells were collected and lysed in Qiagen RNA lysis buffer, and analyzed using the species-specific primers and qRT-PCR procedures described above.

## CC[C@H](OC)[C@@H](C)[C@H]1O[C@@H]1[C@@H](O)[C@H](C)/C=C/C=C(\C)[C@H]1OC(=O)C[C@H](O)CC[C@@](C)(O)[C@@H](OC(C)=O)/C=C/[C@@H]1C [Rebecsinib]
[1]
  ADAR1p150 protein isoform levels: significantly decreased ADAR1p150 protein isoform levels
[2]
  LSC-enriched anti-apoptotic transcripts, including MCL1-L, BCL-XL, and BCL-2: reduces
  intron retention in splicing factor gene products, such as SF3B1 and SF3B3: induces marked intron retention
[3]; 10 mg/kg, twice-weekly for two weeks
  frequency of CD45+ hematopoietic cells in bone marrow, peripheral blood, spleen, and thymus: unchanged
[3]; 20 mg/kg
  human CD19+ cells in peripheral blood: reduction
  human CD45+ and CD19+ cells in bone marrow or spleen: not in the bone marrow or spleen
  human CD45+ cells in peripheral blood: reduction
[3]; 2 weeks of dosing at 10 or 20 mg/kg
  systemic toxicity: no evidence of Rebecsinib-related systemic toxicity
[3]; vs vehicle
  CD19+ B cells in bone marrow, peripheral blood, or spleen: no significant reduction
  human CD3+ T cells in thymus or peripheral blood: no significant reduction
[4]
  intron retention in Sf3b family members: rapidly induced
